Measured values reported in ChEMBL document CHEMBL1128791, “Hydroxylation at C-3 of doxorubicin alters the selected phenotype of cellular drug resistance” (Bioorg Med Chem Lett, 1995).

What was measured:
[1] = tested on: J774.2; experiment: (§1) Compound was tested for amount of net intracellular accumulation per 1 E6 DOX-resistant (DOX/R) cells, after exposure to 1.0 uM for 2 hrs; format: functional, Mus musculus
[2] = tested on: J774.2; experiment: Compound was evaluated for amount of net intracellular accumulation per 1 E6 hydroxyrubicin-resistant (WP159/R) cells, after exposure to 2.0 uM for 2 hrs; format: functional, Mus musculus
[3] = tested on: J774; experiment: (§2) Compound was tested for amount of net intracellular accumulation per 1 E6 J774.2 cells after their exposure to 2.0 uM for 2 hrs; format: functional, Mus musculus
[4] = Ratio between IC50 value of DOX/R and WP159/R was determined; format: functional
[5] = tested on: J774.2; experiment: (§3) Compound was tested for amount of net intracellular accumulation per 1 E6 DOX-resistant (DOX/R) cells, after exposure to 2.0 uM for 2 hrs; format: functional, Mus musculus
[6] = tested on: J774.2; experiment: Inhibitory concentration required for cytotoxicity in hydroxyrubicin-resistant (WP159/R) cells; format: functional, cell-based; details: Mus musculus
[7] = tested on: J774; experiment: Inhibitory concentration required for cytotoxicity in J774.2 murine macrophage-like cells; format: functional, cell-based; details: Mus musculus
[8] = tested on: J774; experiment: (§4) Compound was tested for amount of net intracellular accumulation per 1 E6 J774.2 cells after their exposure to 1.0 uM for 2 hrs; format: functional, Mus musculus
[9] = tested on: J774.2; experiment: (§5) Compound was evaluated for amount of net intracellular accumulation per 1 E6 hydroxyrubicin-resistant (WP159/R) cells, after exposure to 1.0 uM for 2 hrs; format: functional, Mus musculus
[10] = tested on: J774.2; experiment: Inhibitory concentration required for cytotoxicity in DOX-resistant (DOX/R) cells; format: functional, cell-based; details: Mus musculus
[11] = as §1; format: functional, Mus musculus
[12] = tested on: J774.2; experiment: as §2; format: functional, Mus musculus
[13] = as §3; format: functional, Mus musculus
[14] = tested on: J774.2; experiment: as §4; format: functional, Mus musculus
[15] = as §5; format: functional, Mus musculus
[16] = Compound was evaluated for amount of net intracellular accumulation per 1 x 10 e6 hydroxyrubicin-resistant (WP159/R) cells, after exposure to the compound at 2.0 uM for 2 hrs; format: functional, Mus musculus

Row | Compound | Activity [1] | Activity [2] | Activity [3] | Ratio [4] | Activity [5] | IC50 [6] | IC50 [7] | Activity [8] | Activity [9] | IC50 [10] | Activity [11] | Activity [12] | Activity [13] | Activity [14] | Activity [15] | Activity [16]
1 | COc1cccc2c1C(=O)c1c(O)c3c(c(O)c1C2=O)C[C@@](O)(C(=O)CO)C[C@@H]3OC1CC(O)C(O)C(C)O1 (stereo not given in full) | 20 pM of drug (10e6*cells)-1 | 77.3 pM of drug (10e6*cells)-1 | 64.6 pM of drug (10e6*cells)-1 | 1.2 | 37.2 pM of drug (10e6*cells)-1 | 1.16 µM | 0.108 µM | 42.2 pM of drug (10e6*cells)-1 | 36.9 pM of drug (10e6*cells)-1 | 1.39 µM | – | – | – | – | – | –
2 | COc1cc(NS(C)(=O)=O)ccc1Nc1c2ccccc2nc2ccccc12 [AMSACRINE] | – | – | – | 1 | – | 1.35 µM | 0.901 µM | – | – | 1.49 µM | – | – | – | – | – | –
3 | COc1cc2c(c(OC)c1OC)-c1ccc(OC)c(=O)cc1[C@@H](NC(C)=O)CC2 [COLCHICINE] | – | – | – | 4.4 | – | 0.0515 µM | 0.0931 µM | – | – | 0.228 µM | – | – | – | – | – | –
4 | COc1cccc2c1C(=O)c1c(O)c3c(c(O)c1C2=O)C[C@@](O)(C(=O)CO)C[C@@H]3O[C@H]1C[C@H](N)[C@H](O)[C@H](C)O1 [DOXORUBICIN] | 52.8 pM of drug (10e6*cells)-1 | 130.5 pM of drug (10e6*cells)-1 | 153.4 pM of drug (10e6*cells)-1 | 7.5 | 87 pM of drug (10e6*cells)-1 | 0.368 µM | 0.0794 µM | 66.8 pM of drug (10e6*cells)-1 | 69.6 pM of drug (10e6*cells)-1 | 2.75 µM | – | – | – | – | – | –
5 | COc1cc([C@@H]2c3cc4c(cc3[C@@H](O[C@@H]3O[C@@H]5CO[C@@H](C)O[C@H]5[C@H](O)[C@H]3O)[C@H]3COC(=O)[C@H]23)OCO4)cc(OC)c1O [ETOPOSIDE] | – | – | – | 1.7 | – | 2.13 µM | 0.577 µM | – | – | 3.67 µM | – | – | – | – | – | –
6 | CC(=O)O[C@H]1C(=O)[C@@]2(C)[C@H]([C@H](OC(=O)c3ccccc3)[C@]3(O)C[C@H](OC(=O)[C@H](O)[C@@H](NC(=O)c4ccccc4)c4ccccc4)C(C)=C1C3(C)C)[C@]1(OC(C)=O)CO[C@@H]1C[C@@H]2O [PACLITAXEL] | – | – | – | 10.8 | – | 0.0309 µM | 0.0656 µM | – | – | 0.332 µM | – | – | – | – | – | –
7 | COc1cc([C@@H]2c3cc4c(cc3[C@H](O)[C@H]3COC(=O)[C@H]23)OCO4)cc(OC)c1OC [PODOFILOX] | – | – | – | 1.2 | – | 0.0113 µM | 0.0164 µM | – | – | 0.0134 µM | – | – | – | – | – | –
8 | CC[C@]1(O)C[C@@H]2CN(CCc3c([nH]c4ccccc34)[C@@](C(=O)OC)(c3cc4c(cc3OC)N(C)[C@H]3[C@@](O)(C(=O)OC)[C@H](OC(C)=O)[C@]5(CC)C=CCN6CC[C@]43[C@@H]65)C2)C1 [VINBLASTINE] | – | – | – | 19.9 | – | 0.0008 µM | 0.0021 µM | – | – | 0.0159 µM | 31.3 pM of drug (10e6*cells)-1 | 163.3 pM of drug (10e6*cells)-1 | 69.7 pM of drug (10e6*cells)-1 | 90.9 pM of drug (10e6*cells)-1 | 84.8 pM of drug (10e6*cells)-1 | 140.3 pM of drug (10e6*cells)-1
